Test results from the NIST ThermoML archive (doi:10.1021/acs.jced.9b00246).

Experiment: an = ratio of the nth substance listed
Settings: 101.3 kPa, Liquid; for viscosity: Concentric cylinders viscometry; for mass density: Vibrating tube method

CCN.Cl [ethylammonium chloride] + NC(N)=O
Settings | mass density, 313.2 K [kg/m3] | mass density, 323.2 K [kg/m3] | mass density, 333.2 K [kg/m3] | mass density, 343.2 K [kg/m3] | mass density, 353.2 K [kg/m3] | viscosity, 313.2 K [mPa·s] | viscosity, 323.2 K [mPa·s] | viscosity, 333.2 K [mPa·s] | viscosity, 343.2 K [mPa·s] | viscosity, 353.2 K [mPa·s]
a2 = 0.5 | 1103.2 | 1098.1 | 1093.11 | 1088.05 | 1083.06 | 97.8 | 69.6 | 50.8 | 40.9 | 34.8
a2 = 1 | 1141.67 | 1135.99 | 1130.4 | 1124.89 | 1119.43 | 197.7 | 110.1 | 68.3 | 47.6 | 34.8
a2 = 1.94 | 1178.75 | 1172.79 | 1166.88 | 1160.96 | 1155.08 | 105.5 | 67.5 | 49.2 | 37.5 | 28.7
